US11952334B2, “Cocrystals of ubiquinone and compositions comprising them” (CENTER FOR INTELLIGENT RESEARCH IN CRYSTAL ENGINEERING, S.L., priority 2018, dated 2024)

Assays:
[1] = Dissolution rate of ubiquinone vs cocrystals in FaSSIF-v2 medium (small-scale dissolution assay); format: physicochemical; conditions: for Dissolution rate compared with ubiquinone (in words): FaSSIF-v2 medium pH 6.50, 25° C.; for Dissolution rate: tablet 8 mm, exposed surface 0.5 cm^2, FaSSIF-v2 medium pH 6.50, 25° C., Noyes-Whitney fit
Method: 1. Dissolution Rate Experiments • Tablet production: tablets of 8 mm diameter were made using a manual hydraulic tablet press (Applied Measurements Ltd, UK) up to a compression weight of 70 Kg. 40-50 mg of compound, ubiquinone or co-crystal, were weighted. The total exposed surface area was 0.5 cm^2. • Medium: aqueous solution containing 106 mM sodium chloride, 28.4 mM monobasic sodium phosphate, and 8.7 mM sodium hydroxide, adjusted with sodium hydroxide to pH 6.50. • Dissolution tests were performed with a small-scale dissolution assay installed in a GlpKa™ titrator (Sirius Analytical Instruments, UK). • Dissolution time and temperature: 2 hours and 25° C. • Procedure: 15 mL of aqueous medium was added into the sample vial containing the tablet. Spectra were recorded every 30 seconds for 1 hour through Sirius D-PAS spectrometer, with a bifurcated optic fibre dip probe (Hellma Analytics). The medium was stirred at a constant rate.
2. HPLC-MS/MS Quantification • HPLC conditions: • Instrument: Agilent HPLC, consisting on two pumps, oven, and an autoinjector. • Column: Teknokroma C8, 150×4.6 mm, 5 μm. • Mobile phase: 5 mM ammonium formate in methanol:isopropanol (90:10). • Elution mode: isocratic. • Column temperature: 35° C. • Flow rate: 1 mL/min. • Injection volume: […]. • Retention time of ubiquinone: 8.5 min. • MS conditions: • Instrument: Linear Ion Trap Quadrupole LC/MS/MS Mass Spectrometer 6500 Q TRAP (AB SCIEX Instruments). • Curtain Gas: 25 p.s.i. • Source temperature: 400° C. • Ion Source Gas 1: 50 p.s.i. • Ion Source Gas 2: 50 p.s.i. • Ion Spray Voltage: 5500 V. • Mode: positive ionization. • Scan mode: MRM. • Transitions for ubiquinone: • Quantification: 880.8 (Q1)—197.1 (Q3); DP=100, CE=25; Dwell time=1000 ms • Confirmation: 880.8 (Q1)—149.3 (Q3); DP=90, CE=45; Dwell time=1000 ms.
Dissolution rates of the cocrystals were determined by monitoring the dissolution profile of the different coformers. Molar extinction coefficients (MEC) of the coformers were measured in water, assuming that they would be nearly identical in FaSSIF aqueous solution.
Dissolution rate of ubiquinone was determined spectrophotometrically. However, as MEC of ubiquinone couldn't be determined in water due to the low solubility of the compound in this medium, concentration of ubiquinone in the dissolution profile was determined by HPLC-MS/MS.
Noyes-Whitney first order exponential equation was fitted to experimental points, providing the dissolution rate values shown in Table 11 below.

[2] = Particle size analysis (granulometry) by laser dispersion; format: physicochemical; conditions: dispersing fluid silicone oil
Method: Particle size can be determined, for example by laser dispersion on a Beckman Coulter LS13320 provided with a MLM (Micro Liquid Module) (measure range: 0.4 to 2000 μm; optic model: Fraunhofer.rdf, PIDS included).
Particle size analysis (granulometry) was performed by laser dispersion on a Beckman Coulter LS13320 provided with a MLM (Micro Liquid Module) (measure range: 0.4 to 2000 μm; optic model: Fraunhofer.rdf, PIDS included).
In a beaker about 10 ml of silicone oil and a microspoon of sample were placed. The sample was homogeneized by pipetting it repeatedly with a pasteurized pipette and by subjecting it to ultrasonic treatment (30 KHz; 200 W). The module was cleaned and filled with silicone oil as a dispersing fluid. Before each analysis, an optical alignment of the laser and a measure of the instrument noise was made.

Molecule | Dissolution rate compared with ubiquinone (in words) [1] | Dissolution rate [1] | D10 [2] | D50 [2] | D90 [2] | Mean particle size [2] | Mode particle size [2] | Percentage of particles between 9.82 μm and 57.8 μm [2]
COC1=C(OC)C(=O)C(C/C=C(\C)CC/C=C(\C)CC/C=C(\C)CC/C=C(\C)CC/C=C(\C)CC/C=C(\C)CC/C=C(\C)CC/C=C(\C)CC/C=C(\C)CCC=C(C)C)=C(C)C1=O.COC1=C(OC)C(=O)C(C/C=C(\C)CC/C=C(\C)CC/C=C(\C)CC/C=C(\C)CC/C=C(\C)CC/C=C(\C)CC/C=C(\C)CC/C=C(\C)CC/C=C(\C)CCC=C(C)C)=C(C)C1=O.Cc1cc(O)cc(O)c1.Cc1cc(O)cc(O)c1.Cc1cc(O)cc(O)c1 [Compound P57-VII, Ubiquinone:orcinol cocrystal (2:3)] | highest dissolution rate | 106 ± 23 µg/min | 2.09 μm | 23.5 μm | 35.5 μm | 20.9 μm | 31.5 μm | 75.5%
COC1=C(OC)C(=O)C(C/C=C(\C)CC/C=C(\C)CC/C=C(\C)CC/C=C(\C)CC/C=C(\C)CC/C=C(\C)CC/C=C(\C)CC/C=C(\C)CC/C=C(\C)CCC=C(C)C)=C(C)C1=O.O=C(O)c1ccc(O)cc1 [Compound P57-III, Ubiquinone:4-hydroxybenzoic acid cocrystal (1:1)] | highest dissolution rate | 56 ± 8 µg/min | 2.51 μm | 18.2 μm | 36.1 μm | 19.0 μm | 34.6 μm | 70.5%
COC1=C(OC)C(=O)C(C/C=C(\C)CC/C=C(\C)CC/C=C(\C)CC/C=C(\C)CC/C=C(\C)CC/C=C(\C)CC/C=C(\C)CC/C=C(\C)CC/C=C(\C)CCC=C(C)C)=C(C)C1=O.COC1=C(OC)C(=O)C(C/C=C(\C)CC/C=C(\C)CC/C=C(\C)CC/C=C(\C)CC/C=C(\C)CC/C=C(\C)CC/C=C(\C)CC/C=C(\C)CC/C=C(\C)CCC=C(C)C)=C(C)C1=O.Oc1ccc(O)cc1 [Compound P57-VI, Ubiquinone:hydroquinone (2:1)] |  |  | 1.69 μm | 17.0 μm | 34.6 μm | 17.2 μm | 31.5 μm | 58.3%
COC1=C(OC)C(=O)C(C/C=C(\C)CC/C=C(\C)CC/C=C(\C)CC/C=C(\C)CC/C=C(\C)CC/C=C(\C)CC/C=C(\C)CC/C=C(\C)CC/C=C(\C)CCC=C(C)C)=C(C)C1=O [Compound P57, ubiquinone] |  | 0.0012 ± 0.0007 µg/min | 5.19 μm | 28.4 μm | 41.7 μm | 26.0 μm | 38.0 μm | 83.1%

Further lines, results first:

Dissolution rate compared with ubiquinone (in words) [1] | Dissolution rate [1] | D10 [2] | D50 [2] | D90 [2] | Mean particle size [2] | Mode particle size [2] | Percentage of particles between 9.82 μm and 57.8 μm [2] | Molecule
 | 3.5 ± 0.4 µg/min | 9.46 μm | 22.2 μm | 34.0 μm | 22.0 μm | 31.5 μm | 88.9% | COC1=C(OC)C(=O)C(C/C=C(\C)CC/C=C(\C)CC/C=C(\C)CC/C=C(\C)CC/C=C(\C)CC/C=C(\C)CC/C=C(\C)CC/C=C(\C)CC/C=C(\C)CCC=C(C)C)=C(C)C1=O.COC1=C(OC)C(=O)C(C/C=C(\C)CC/C=C(\C)CC/C=C(\C)CC/C=C(\C)CC/C=C(\C)CC/C=C(\C)CC/C=C(\C)CC/C=C(\C)CC/C=C(\C)CCC=C(C)C)=C(C)C1=O.O.Oc1cc(O)cc(O)c1 [Compound P57-VIII, Ubiquinone:phloroglucinol monohydrate cocrystal (2:1:1)]
 | 5.7 ± 0.8 µg/min |  |  |  | 14.5 μm | 31.5 μm | 52.9% | Ubiquinone:resorcinol cocrystal (2:1) [Compound P57-V]
